The target of this test is recombinant human integrin αvβ6 (Homo sapiens (Human), UniProt P06756+P18564). The test can be described thus: Solid phase integrin αvβ6 binding assay. Particulars: plate-coated integrin; recombinant TGFβ1 LAP 0.67 ug/ml as ligand; 2 hours at 25° C.; read-out: αvβ6 Inhibition IC50 (nM) - range. The procedure: Example B1—Solid Phase Integrin αvβ6 Binding Assay
Microplates were coated with recombinant human integrin αvβ6 (2 ug/ml) in PBS (100 ul/well 25° C., overnight). The coating solution was removed, washed with wash buffer (0.05% Tween 20; 0.5 mM MnCl2; in 1×TBS). Plate was blocked with 200 ul/well of Block Buffer (1% BSA; 5% sucrose; 0.5 mM MnCl2; in 1×TBS) at 37° C. for 2 h. Dilutions of testing compounds and recombinant TGFβ1 LAP (0.67 ug/ml) in binding buffer (0.05% BSA; 2.5% sucrose; 0.5 mM MnCl2; in 1×TBS) were added. The plate was incubated for 2 hours at 25° C., washed, and incubated for 1 hour with Biotin-Anti-hLAP. Bound antibody was detected by peroxidase-conjugated streptavidin. The IC50 values for testing compounds were calculated by a four-parameter logistic regression.
The compounds tested were compound samples prepared according to procedures described in the Synthetic Examples section, with the stereochemical purity as indicated in the Examples indicated.

Chain of recombinant human integrin αvβ6 (P06756 31-992): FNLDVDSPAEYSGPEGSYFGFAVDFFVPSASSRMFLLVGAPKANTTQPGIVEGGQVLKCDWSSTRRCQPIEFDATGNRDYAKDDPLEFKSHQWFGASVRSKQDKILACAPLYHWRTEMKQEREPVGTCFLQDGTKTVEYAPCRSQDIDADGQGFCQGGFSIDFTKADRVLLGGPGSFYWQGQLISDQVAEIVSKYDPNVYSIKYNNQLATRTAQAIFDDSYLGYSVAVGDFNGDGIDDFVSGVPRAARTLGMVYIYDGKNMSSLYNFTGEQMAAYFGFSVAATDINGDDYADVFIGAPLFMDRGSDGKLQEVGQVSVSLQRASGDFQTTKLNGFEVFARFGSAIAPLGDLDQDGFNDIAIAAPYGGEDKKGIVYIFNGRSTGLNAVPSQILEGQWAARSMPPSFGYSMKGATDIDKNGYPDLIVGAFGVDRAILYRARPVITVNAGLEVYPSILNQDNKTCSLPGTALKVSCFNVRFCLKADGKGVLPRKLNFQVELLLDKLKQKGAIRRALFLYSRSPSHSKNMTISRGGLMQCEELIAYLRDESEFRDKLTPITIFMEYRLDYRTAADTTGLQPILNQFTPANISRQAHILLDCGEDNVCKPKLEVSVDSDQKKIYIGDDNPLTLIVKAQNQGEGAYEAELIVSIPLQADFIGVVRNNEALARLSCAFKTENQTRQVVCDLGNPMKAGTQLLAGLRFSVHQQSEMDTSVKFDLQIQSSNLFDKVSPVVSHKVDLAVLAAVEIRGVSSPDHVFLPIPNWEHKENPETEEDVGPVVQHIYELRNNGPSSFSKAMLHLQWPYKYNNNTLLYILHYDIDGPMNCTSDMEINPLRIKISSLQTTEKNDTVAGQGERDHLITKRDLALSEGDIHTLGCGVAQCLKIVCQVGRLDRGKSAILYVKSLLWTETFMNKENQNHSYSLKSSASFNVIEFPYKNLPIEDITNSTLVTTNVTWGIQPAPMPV
Chain of recombinant human integrin αvβ6 (P18564 22-707): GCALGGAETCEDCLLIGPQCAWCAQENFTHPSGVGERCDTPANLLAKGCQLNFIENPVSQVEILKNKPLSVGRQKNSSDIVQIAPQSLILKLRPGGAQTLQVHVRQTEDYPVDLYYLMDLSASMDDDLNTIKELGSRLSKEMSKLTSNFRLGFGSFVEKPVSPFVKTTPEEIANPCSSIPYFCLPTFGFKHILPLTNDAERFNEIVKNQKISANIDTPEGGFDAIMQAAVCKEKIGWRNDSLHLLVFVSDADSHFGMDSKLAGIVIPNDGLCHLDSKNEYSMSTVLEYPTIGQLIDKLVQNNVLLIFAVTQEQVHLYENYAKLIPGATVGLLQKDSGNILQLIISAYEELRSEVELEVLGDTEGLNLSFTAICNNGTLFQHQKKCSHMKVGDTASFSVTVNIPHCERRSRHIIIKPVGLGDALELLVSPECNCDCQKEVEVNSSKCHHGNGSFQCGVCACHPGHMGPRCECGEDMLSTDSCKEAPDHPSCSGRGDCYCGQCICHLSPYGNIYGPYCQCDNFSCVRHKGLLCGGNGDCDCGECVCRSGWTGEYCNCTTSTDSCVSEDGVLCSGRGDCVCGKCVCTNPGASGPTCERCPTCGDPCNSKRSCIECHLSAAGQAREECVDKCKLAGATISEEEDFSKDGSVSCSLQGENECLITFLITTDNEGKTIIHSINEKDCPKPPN

As to `Cn1ncc2c(C(=O)N[C@@H](CCN3CC[C@@H](CCc4ccc5c(n4)NCCC5)C3)C(=O)O)cccc21` [Compound 27a, (S)-2-(1-methyl-1H-indazole-4-carboxamido)-4-((R)-3-(2-(5,6,7,8-tetrahydro-1,8-naphthyridin-2-yl)ethyl)pyrrolidin-1-yl)butanoic acid], the IC50 (commonly the concentration at which inhibition is half-maximal) is less than 50 nM.
Take `Cn1ncc2cccc(C(=O)N[C@@H](CCN3CC[C@@H](CCc4ccc5c(n4)NCCC5)C3)C(=O)O)c21` [Compound 28a, (S)-2-(1-methyl-1H-indazole-7-carboxamido)-4-((R)-3-(2-(5,6,7,8-tetrahydro-1,8-naphthyridin-2-yl)ethyl)pyrrolidin-1-yl)butanoic acid]: the IC50 is less than 50 nM.
Turning to `O=C(N[C@@H](CCN1CC[C@@H](CCc2ccc3c(n2)NCCC3)C1)C(=O)O)c1ccc2cnn(C(F)F)c2c1` [Compound 29a, (S)-2-(1-(difluoromethyl)-1H-indazole-6-carboxamido)-4-((R)-3-(2-(5,6,7,8-tetrahydro-1,8-naphthyridin-2-yl)ethyl)pyrrolidin-1-yl)butanoic acid], the IC50 was less than 50 nM.
For `O=C(N[C@@H](CCN1CC[C@@H](CCc2ccc3c(n2)NCCC3)C1)C(=O)O)c1ccc2c(cnn2C(F)F)c1` [Compound 30a, (S)-2-(1-(difluoromethyl)-1H-indazole-5-carboxamido)-4-((R)-3-(2-(5,6,7,8-tetrahydro-1,8-naphthyridin-2-yl)ethyl)pyrrolidin-1-yl)butanoic acid], the IC50 was less than 50 nM.
Next, `O=C(NC1CCN(CC[C@H](NC(=O)C2CCC(F)(F)CC2)C(=O)O)CC1)c1ccc2c(n1)NCCC2` [Compound 33]: more than 1000 nM.
Then `O=C(N[C@@H](CCN1CC[C@@H](CCc2ccc3c(n2)NCCC3)C1)C(=O)O)c1cccc2[nH]ncc12` [Compound 35], with less than 50 nM; and `O=C(O)[C@H](CCN1CC[C@@H](CCc2ccc3c(n2)NCCC3)C1)NC(=O)[C@@H]1CCCN1Cc1ccccc1` [Compound 36], with less than 50 nM.
Turning to `CC(C)(C(=O)N[C@@H](CCN1CC[C@@H](CCc2ccc3c(n2)NCCC3)C1)C(=O)O)c1cccnc1` [Compound 37], the IC50 was less than 50 nM.
On to `O=C(N[C@@H](CCN1CC[C@@H](CCc2ccc3c(n2)NCCC3)C1)C(=O)O)C1CCOCC1` [Compound 38], for which the IC50 is less than 50 nM.
Regarding `O=C(N[C@@H](CCN1CC(CCc2ccc3c(n2)NCCC3)C(F)(F)C1)C(=O)O)c1ccccc1` (some centres unmarked) [Compound 39], the 50% inhibitory concentration (IC50) fell in the range of 50 to 250 nM.
As for `CC(C)(C)OC(=O)N[C@@H](CCN1CC(CCc2ccc3c(n2)NCCC3)CC(F)(F)C1)C(=O)O` (some centres unmarked) [Compound 40], the 50% inhibitory concentration (IC50) is 250 to 1000 nM.
Turning to `O=C(N[C@@H](CCN1CC(CCc2ccc3c(n2)NCCC3)CC(F)(F)C1)C(=O)O)c1ccccc1` (some centres unmarked) [Compound 41], the IC50 is 50 to 250 nM.
Consider `Cc1cc(C)n(-c2cccc(C(=O)N[C@@H](CCN3CC(CCc4ccc5c(n4)NCCC5)CC(F)(F)C3)C(=O)O)c2)n1` (some centres unmarked) [Compound 42], for which the IC50 was 250 to 1000 nM.
Then `O=C(O)[C@H](CCN1CC[C@@H](CCc2ccc3c(n2)NCCC3)C1)NC(=O)[C@@H]1CCCN1c1ccccc1` [Compound 43], with less than 50 nM; and `CC(C)(C(=O)N[C@@H](CCN1CC[C@@H](CCc2ccc3c(n2)NCCC3)C1)C(=O)O)c1ccccc1` [Compound 44], with less than 50 nM; and `CC(C)(Cc1ccccc1)C(=O)N[C@@H](CCN1CC[C@@H](CCc2ccc3c(n2)NCCC3)C1)C(=O)O` [Compound 45], with less than 50 nM.
Regarding `O=C(N[C@@H](CCN1CC[C@@H](CCc2ccc3c(n2)NCCC3)C1)C(=O)O)[C@H]1CCN(c2ccccn2)C1` [Compound 46], the IC50 is less than 50 nM.
Then `O=C(N[C@@H](CCN1CC[C@@H](CCc2ccc3c(n2)NCCC3)C1)C(=O)O)[C@@H]1CCN(c2ccccn2)C1` [Compound 47], with less than 50 nM; and `N#Cc1cccc(C(=O)N[C@@H](CCN2CC[C@@H](CCc3ccc4c(n3)NCCC4)C2)C(=O)O)c1` [Compound 48], with less than 50 nM; and `Cn1nccc1C(=O)N[C@@H](CCN1CC[C@@H](CCc2ccc3c(n2)NCCC3)C1)C(=O)O` [Compound 49], with less than 50 nM.
